Measurements from US8658604B2, “Template-fixed beta-hairpin peptidomimetics with protease inhibitory activity” (Polyphor Ltd, priority 2005, dated 2014).
Read-outs that look alike come from different tables or passages of the source. Where a SMILES comes first, the peptide text is derived from it.

What was measured:
[1] = molecular target: Thrombin, from Human Plasma (Homo sapiens, UniProt P00734); test: Enzymatic assay, thrombin
[2] = system: Tryptase, from human lung; test: Enzymatic assay, tryptase; conditions: at 100 μM
Chymase, from human skin = molecular target: T1, Chymase, from human skin (Homo sapiens, UniProt P23946); test: Enzymatic assay, chymase
T1 sequence (P23946 22-247): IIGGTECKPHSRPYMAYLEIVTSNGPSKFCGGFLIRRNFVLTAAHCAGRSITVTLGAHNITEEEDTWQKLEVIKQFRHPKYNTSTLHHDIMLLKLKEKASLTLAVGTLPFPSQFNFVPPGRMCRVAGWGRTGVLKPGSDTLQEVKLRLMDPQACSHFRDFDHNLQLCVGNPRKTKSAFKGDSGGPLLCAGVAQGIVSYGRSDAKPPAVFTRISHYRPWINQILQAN

[3] = molecular target: T2, Elastase from human neutrophils (Homo sapiens, UniProt P08246); test: Enzymatic assay, elastase; conditions: Elastase IC50
T2 sequence (P08246 30-267): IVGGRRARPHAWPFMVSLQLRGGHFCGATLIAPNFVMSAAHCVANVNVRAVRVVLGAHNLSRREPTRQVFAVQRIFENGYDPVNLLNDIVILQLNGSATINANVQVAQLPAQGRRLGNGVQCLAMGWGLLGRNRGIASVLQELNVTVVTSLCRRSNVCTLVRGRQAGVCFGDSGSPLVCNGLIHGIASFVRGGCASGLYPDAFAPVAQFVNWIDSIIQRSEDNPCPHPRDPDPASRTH

[4] = molecular target: Chymotrypsin, from human pancreas (Homo sapiens, UniProt P17538); test: Enzymatic assay, chymotrypsin; conditions: at 100 μM
[5] = molecular target: T3, CathepsinG, from human neutrophils (Homo sapiens, UniProt P08311); test: Enzymatic assay, cathepsin G
T3 sequence (P08311 21-244): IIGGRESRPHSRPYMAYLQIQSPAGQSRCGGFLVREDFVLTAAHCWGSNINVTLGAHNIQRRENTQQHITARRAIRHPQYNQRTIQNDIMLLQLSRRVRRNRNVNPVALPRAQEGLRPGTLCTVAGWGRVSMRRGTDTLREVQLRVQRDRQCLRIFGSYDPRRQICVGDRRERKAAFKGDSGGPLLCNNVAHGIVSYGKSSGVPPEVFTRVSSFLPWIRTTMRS

[6] = molecular target: Urokinase from human urine (Homo sapiens, UniProt P00749); test: Enzymatic assay, urokinase
[7] = molecular target: Coagulation Factor Xa, from uman plasma (Homo sapiens, UniProt P00742); test: Enzymatic assay, coagulation factor Xa
[8] = molecular target: Trypsin, from human pancreas (Homo sapiens, UniProt P07477); test: Enzymatic assay, trypsin; conditions: at 100 μM

Chymotrypsin, from human pancreas, sequence (P17538 19-263): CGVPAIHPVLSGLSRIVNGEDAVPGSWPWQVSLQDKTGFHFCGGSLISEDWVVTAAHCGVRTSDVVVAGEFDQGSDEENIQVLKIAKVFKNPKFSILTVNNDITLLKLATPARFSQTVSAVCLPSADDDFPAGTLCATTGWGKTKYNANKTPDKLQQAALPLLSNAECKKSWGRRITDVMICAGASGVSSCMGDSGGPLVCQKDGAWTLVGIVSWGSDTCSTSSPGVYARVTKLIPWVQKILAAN
Coagulation Factor Xa, from uman plasma, sequence (P00742 235-488 limits assumed): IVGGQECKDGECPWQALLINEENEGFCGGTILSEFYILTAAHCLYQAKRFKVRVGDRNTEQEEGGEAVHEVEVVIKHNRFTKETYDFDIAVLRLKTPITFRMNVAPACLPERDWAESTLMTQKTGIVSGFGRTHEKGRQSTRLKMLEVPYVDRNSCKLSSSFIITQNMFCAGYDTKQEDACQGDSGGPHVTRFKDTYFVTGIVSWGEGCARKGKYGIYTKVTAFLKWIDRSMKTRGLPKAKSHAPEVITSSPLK
Coagulation Factor Xa, from uman plasma, sequence (P00742 41-179 limits assumed): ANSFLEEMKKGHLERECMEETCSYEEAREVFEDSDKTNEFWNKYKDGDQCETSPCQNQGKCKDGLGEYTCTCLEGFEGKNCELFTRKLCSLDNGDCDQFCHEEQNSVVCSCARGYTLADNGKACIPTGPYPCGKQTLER

SMILES	Thrombin at 100 μM % [1] [%]	Tryptase at 100 μM % [2] [%]	Chymase at 100 μM % (Chymase, from human skin) [%]	IC50 [3] [nM]	Chymotrypsin at 100 μM % [4]	IC50 ([5]; Cathepsin G IC50) [nM]	Urokinase at 100 μM % [6] [%]	FXa at 100 μM % [7] [%]	Trypsin at 100 μM % [8] [%]	Cathepsin G at 100 μM % ([5]; at 100 μM (stated in cell instead of IC50)) [at 100%]	Tryptase At 100 μM % [2] [%]	Cathepsin G at 100 μM % ([5]; at 100 μM) [at 100%]	IC50 ([5]; read-out: Cathepsin G IC50) [nM]
CC[C@H](C)[C@@H]1NC(=O)[C@@H]2CCCN2C(=O)[C@@H]2CCCN2C(=O)[C@H](CC(=O)O)NC(=O)[C@H](CO)NC(=O)[C@H](CCCCN)NC(=O)[C@H]([C@@H](C)O)NC(=O)[C@@H]2CSSC[C@H](NC1=O)C(=O)N[C@@H](CC(=O)O)C(=O)N1CCC[C@@H]1C(=O)N1CCC[C@H]1C(=O)N[C@@H](Cc1ccccc1)C(=O)N2 [Ex. 2] (HELM PEPTIDE1{F.C.T.K.S.D.P.P.I.C.D.[dP].P}$PEPTIDE1,PEPTIDE1,2:R3-10:R3|PEPTIDE1,PEPTIDE1,1:R1-13:R2$$$V2.0)	9.2	39.6	0	> 100000	2.9%	84	0.9	5.3	92				
CC[C@H](C)[C@@H]1NC(=O)[C@@H]2CCCN2C(=O)[C@@H]2CCCN2C(=O)[C@H](CC(=O)O)NC(=O)[C@H](CO)NC(=O)[C@H](CCCCN)NC(=O)[C@H]([C@@H](C)O)NC(=O)[C@@H]2CSSC[C@H](NC1=O)C(=O)N[C@@H](Cc1ccc(O)cc1)C(=O)N1CCC[C@@H]1C(=O)N1CCC[C@H]1C(=O)N[C@@H](Cc1ccc(O)cc1)C(=O)N2 [Ex. 26] (HELM PEPTIDE1{Y.C.T.K.S.D.P.P.I.C.Y.[dP].P}$PEPTIDE1,PEPTIDE1,2:R3-10:R3|PEPTIDE1,PEPTIDE1,1:R1-13:R2$$$V2.0)	3	66.4	0	> 100000	2.2%	49	3.1	6	84				
CC[C@H](C)[C@@H]1NC(=O)[C@@H]2CCCN2C(=O)[C@@H]2CCCN2C(=O)[C@H](CC(=O)O)NC(=O)[C@H](CO)NC(=O)[C@H](CCCCN)NC(=O)[C@H]([C@@H](C)O)NC(=O)[C@@H]2CSSC[C@H](NC1=O)C(=O)N[C@@H]([C@@H](C)O)C(=O)N1CCC[C@@H]1C(=O)N1CCC[C@H]1C(=O)N[C@@H](CCc1ccccc1)C(=O)N2 [Ex. 28] (HELM PEPTIDE1{[O=C([C@H](CCc1ccccc1)N[*:1])[*:2]].C.T.K.S.D.P.P.I.C.T.[dP].P}$PEPTIDE1,PEPTIDE1,2:R3-10:R3|PEPTIDE1,PEPTIDE1,1:R1-13:R2$$$V2.0)	12	0	0	> 100000	32%	39	1	6	95				
CC[C@H](C)[C@@H]1NC(=O)[C@@H]2CCCN2C(=O)[C@@H]2CCCN2C(=O)[C@H](CC(=O)O)NC(=O)[C@H](CO)NC(=O)[C@H](CCCCN)NC(=O)[C@H]([C@@H](C)O)NC(=O)[C@@H]2CSSC[C@H](NC1=O)C(=O)N[C@@H](CC(N)=O)C(=O)N1CCC[C@@H]1C(=O)N1CCC[C@H]1C(=O)N[C@@H](Cc1ccc(N)cc1)C(=O)N2 [Ex. 31] (HELM PEPTIDE1{[Nc1ccc(C[C@H](N[*:1])C(=O)[*:2])cc1].C.T.K.S.D.P.P.I.C.N.[dP].P}$PEPTIDE1,PEPTIDE1,2:R3-10:R3|PEPTIDE1,PEPTIDE1,1:R1-13:R2$$$V2.0)	10	76	12	> 100000	15%	34	15	8	98				
CC[C@H](C)[C@@H]1NC(=O)[C@@H]2CCCN2C(=O)[C@@H]2CCCN2C(=O)[C@H](CC(=O)O)NC(=O)[C@H](CO)NC(=O)[C@H](CCCCN)NC(=O)[C@H]([C@@H](C)O)NC(=O)[C@@H]2CSSC[C@H](NC1=O)C(=O)N[C@@H](CO)C(=O)N[C@H](C)C(=O)N[C@@H](CC(=O)O)C(=O)N[C@@H](Cc1ccccc1)C(=O)N2 [Ex. 68] (HELM PEPTIDE1{F.C.T.K.S.D.P.P.I.C.S.[dA].D}$PEPTIDE1,PEPTIDE1,2:R3-10:R3|PEPTIDE1,PEPTIDE1,1:R1-13:R2$$$V2.0)	5.4	21.3	0	> 100000	4.3%	59	4.6	8.6	84.2				
CCCC[C@@H]1NC(=O)[C@@H]2CCCN2C(=O)[C@H]2CCCN2C(=O)[C@H](Cc2ccc(O)cc2)NC(=O)[C@H](CCCCN)NC(=O)[C@H](CCC(N)=O)NC(=O)[C@@H]2CCCN2C(=O)[C@@H]2CCCN2C(=O)[C@H]([C@@H](C)CC)NC(=O)[C@H](CO)NC(=O)[C@H](C)NC(=O)[C@H]([C@@H](C)O)NC(=O)[C@H](CCC(=O)O)NC1=O [Ex. 104] (HELM PEPTIDE1{[Nle].E.T.A.S.I.P.P.Q.K.Y.[dP].P}$PEPTIDE1,PEPTIDE1,1:R1-13:R2$$$V2.0)	7.7	0	0	34	3.1 at 100 μM %		0	6.2	0	53.5			
CC[C@H](C)[C@@H]1NC(=O)[C@H](CO)NC(=O)[C@H](C)NC(=O)[C@H]([C@@H](C)O)NC(=O)[C@@H]2CSSC[C@H](NC(=O)[C@H](CCC(N)=O)NC(=O)[C@@H]3CCCN3C(=O)[C@@H]3CCCN3C1=O)C(=O)N[C@@H](CCC(N)=O)C(=O)N1CCC[C@@H]1C(=O)N1CCC[C@H]1C(=O)N[C@@H](CCc1ccccc1)C(=O)N2 [Ex. 143] (HELM PEPTIDE1{[O=C([C@H](CCc1ccccc1)N[*:1])[*:2]].C.T.A.S.I.P.P.Q.C.Q.[dP].P}$PEPTIDE1,PEPTIDE1,2:R3-10:R3|PEPTIDE1,PEPTIDE1,1:R1-13:R2$$$V2.0)	12		0	15	91%		8	0	12		18	28	
CCCC[C@@H]1NC(=O)[C@@H]2CCCN2C(=O)[C@H]2CCCN2C(=O)[C@H](Cc2ccccc2Cl)NC(=O)[C@@H]2CSSC[C@H](NC1=O)C(=O)N[C@@H]([C@@H](C)O)C(=O)N[C@@H](C)C(=O)N[C@@H](CO)C(=O)N[C@@H]([C@@H](C)CC)C(=O)N1CCC[C@H]1C(=O)N1CCC[C@H]1C(=O)N[C@@H](CCC(N)=O)C(=O)N2 [Ex. 144] (HELM PEPTIDE1{[Nle].C.T.A.S.I.P.P.Q.C.[O=C([C@H](Cc1ccccc1Cl)N[*:1])[*:2]].[dP].P}$PEPTIDE1,PEPTIDE1,2:R3-10:R3|PEPTIDE1,PEPTIDE1,1:R1-13:R2$$$V2.0)	3.6		0	7.5	80.6%		6.2	0	7.5		0		21200
CC[C@H](C)[C@@H]1NC(=O)[C@H](CO)NC(=O)[C@H](C)NC(=O)[C@H]([C@@H](C)O)NC(=O)[C@@H]2CSSC[C@H](NC(=O)[C@H](CCC(N)=O)NC(=O)[C@@H]3CCCN3C(=O)[C@@H]3CCCN3C1=O)C(=O)N[C@@H](Cc1ccccc1)C(=O)N1CCC[C@@H]1C(=O)N1CCC[C@H]1C(=O)N[C@@H](CCc1ccccc1)C(=O)N2 [Ex. 146] (HELM PEPTIDE1{[O=C([C@H](CCc1ccccc1)N[*:1])[*:2]].C.T.A.S.I.P.P.Q.C.F.[dP].P}$PEPTIDE1,PEPTIDE1,2:R3-10:R3|PEPTIDE1,PEPTIDE1,1:R1-13:R2$$$V2.0)	11		0	12	87%		0	1	3		22	1	
